The source of these data is PubChem BioAssay (NCI).

The structures appear in SMILES notation. Where “and” joins values, the source holds several entries; their conditions need not be identical. Identical values can stand only once.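 Dose response: 5 concentrations. Exposure: 48 h. Format: 96-well plates. Endpoint: linear interpolation; highest concentration if not reached. Here, GI50 denotes the concentration required for 50% inhibition of growth. TGI: concentration producing complete growth inhibition.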

Some test systems named below: IGROV1 ovarian; MALME-3M melanoma; HCC-2998 colon; UO-31 renal; CAKI-1 renal; OVCAR-4 ovarian; TK-10 renal; HCT-116 colon; A498 renal; SN12C renal.
What all share (assay): NCI tumour cell line growth inhibition, 48 h

`Nc1nc(N)c(-c2ccc(Cl)cc2)c(CCC(=O)Nc2cccc(C(F)(F)F)c2)n1`: the TGI in the experiment with IGROV1 ovarian, in the experiment on MALME-3M melanoma, in the experiment with HCC-2998 colon, in the experiment with UO-31 renal, with CAKI-1 renal and in the experiment on OVCAR-4 ovarian was greater than 100 µM in each case. Also, the TGI with TK-10 renal, in the experiment with HCT-116 colon, in the experiment with A498 renal and in the experiment on SN12C renal was greater than 100 µM throughout.

Turning to `COC(=O)C1C(=O)O[C@@H](c2ccc(OC)cc2OC)C1C(=O)OC` (stereo partly drawn), the TGI in the experiment on IGROV1 ovarian, with MALME-3M melanoma, in the experiment with HCC-2998 colon, with UO-31 renal, in the experiment on CAKI-1 renal and in the experiment on OVCAR-4 ovarian was greater than 100 µM each time. The TGI in the experiment on TK-10 renal, in the experiment on HCT-116 colon, in the experiment with A498 renal and in the experiment on SN12C renal was greater than 100 µM in each case.

With `COC(=O)C1=CC2OC13CC1CCC3(C2=O)C1(C)C` (stereo not drawn), the TGI with IGROV1 ovarian was determined as 39.9 µM; in the experiment with MALME-3M melanoma it was 28.5 µM; in the experiment with HCC-2998 colon, 27.8 µM; with UO-31 renal, 19.1 µM; with CAKI-1 renal, 7.37 µM; in the experiment with OVCAR-4 ovarian it was 23.3 µM. The TGI in the experiment on TK-10 renal was determined as 22.6 µM; in the experiment on HCT-116 colon, 23.5 µM; in the experiment on A498 renal, 49 µM; with SN12C renal, 26.4 µM.

Regarding `COc1ccccc1NC(=O)C1=C(C)NC(C)=C(C(=O)Nc2ccccc2OC)C1c1ccccc1OC`, the TGI in the experiment with IGROV1 ovarian, in the experiment with MALME-3M melanoma, in the experiment on HCC-2998 colon, in the experiment with UO-31 renal, in the experiment on CAKI-1 renal and with OVCAR-4 ovarian was greater than 100 µM each time. The TGI with TK-10 renal, with HCT-116 colon, in the experiment on A498 renal and with SN12C renal was greater than 100 µM throughout.

On to `CC(=O)OCC1OC(S[As](C)C)C(OC(C)=O)C1OC(C)=O` (stereo not drawn), for which the GI50 in the experiment with IGROV1 ovarian was 0.732 µM; in the experiment on MALME-3M melanoma, 0.107 µM; in the experiment on HCC-2998 colon it was 0.255 µM; in the experiment on UO-31 renal it was 0.122 µM; in the experiment on CAKI-1 renal, 0.0791 µM; with OVCAR-4 ovarian, 1.15 µM. For the same compound, the GI50 is 0.231 µM in the experiment with TK-10 renal, 0.226 µM in the experiment on HCT-116 colon, 0.432 µM with A498 renal and 0.33 µM in the experiment with SN12C renal. For the same compound, the TGI worked out at 4.06 µM with IGROV1 ovarian; 0.696 µM in the experiment on MALME-3M melanoma; 1.76 µM in the experiment on HCC-2998 colon; 1.02 µM in the experiment on UO-31 renal; 0.453 µM in the experiment on CAKI-1 renal; 8.09 µM in the experiment with OVCAR-4 ovarian. Moreover, the TGI is 0.843 µM with TK-10 renal, 1.38 µM in the experiment on HCT-116 colon, 3.06 µM in the experiment with A498 renal and 1.51 µM in the experiment with SN12C renal.

On to `O=C(O)c1cccc(CC(Br)C(=O)O)c1` (stereo not drawn), for which the TGI in the experiment on IGROV1 ovarian, in the experiment with MALME-3M melanoma, in the experiment on HCC-2998 colon, in the experiment with UO-31 renal, in the experiment with CAKI-1 renal and with OVCAR-4 ovarian was greater than 100 µM in each case. Also, the TGI in the experiment with TK-10 renal, in the experiment with HCT-116 colon, in the experiment on A498 renal and with SN12C renal was greater than 100 µM in each case.

As for `CC(C)(O)[C@H]1[C@@H]2OC(=O)[C@H]1[C@]1(O)C[C@H]3OC34C(=O)O[C@H]2[C@@]41C` (stereo partly drawn) (tested in a mixture with another compound), the TGI with IGROV1 ovarian, in the experiment on MALME-3M melanoma, in the experiment with HCC-2998 colon, in the experiment on UO-31 renal, in the experiment on CAKI-1 renal and with OVCAR-4 ovarian was greater than 100 µM each time. Besides, the TGI with TK-10 renal, in the experiment on HCT-116 colon, in the experiment with A498 renal and with SN12C renal was greater than 100 µM throughout.

Regarding `COC(=O)C#Cc1ccc([N+](=O)[O-])cc1`, the TGI in the experiment on IGROV1 ovarian stood at 3.92 µM; in the experiment on MALME-3M melanoma, 4.41 µM; with HCC-2998 colon, 4.32 µM; with UO-31 renal, 2.85 µM; in the experiment with CAKI-1 renal it was 2.74 µM; in the experiment with OVCAR-4 ovarian, 3.5 µM. The TGI stood at 3.79 µM in the experiment on TK-10 renal, 3.46 µM in the experiment with HCT-116 colon, 22.6 µM with A498 renal and 3.22 µM in the experiment on SN12C renal.

As to `Cc1cccc(N=C2c3cc([N+](=O)[O-])ccc3-c3c2cc([N+](=O)[O-])cc3[N+](=O)[O-])c1`, the GI50 in the experiment on IGROV1 ovarian was 5.89 µM; with MALME-3M melanoma, 4.82 µM; with HCC-2998 colon it was 6.45 µM; in the experiment on UO-31 renal, 10.9 µM; with CAKI-1 renal, 15.5 µM; with OVCAR-4 ovarian, 6.98 µM. The GI50 in the experiment on TK-10 renal is 12.9 µM; in the experiment with HCT-116 colon, 1.67 µM; in the experiment with A498 renal, 27.8 µM; with SN12C renal, 2.14 µM. In addition, the TGI with IGROV1 ovarian was greater than 100 µM; in the experiment with MALME-3M melanoma, 21.2 µM; in the experiment on HCC-2998 colon, 18.7 µM; in the experiment with UO-31 renal, 29.9 µM; with CAKI-1 renal, 77.9 µM; in the experiment on OVCAR-4 ovarian, greater than 100 µM. For the same compound, the TGI in the experiment with TK-10 renal was greater than 100 µM; in the experiment on HCT-116 colon it was 3.37 µM; in the experiment with A498 renal, greater than 100 µM; in the experiment with SN12C renal, 4.8 µM.

`O=C(O)CCC1CCC(c2cc(F)ccc2F)(S(=O)(=O)c2ccc(Cl)cc2)CC1` (stereo not drawn): the GI50 was 18 µM and 80.7 µM in the experiment with IGROV1 ovarian; 10.2 µM and > 100 µM in the experiment on MALME-3M melanoma; 38 µM and > 75.4 µM in the experiment on HCC-2998 colon; 22.7 µM and > 100 µM with UO-31 renal; 30.5 µM and > 65.6 µM in the experiment on OVCAR-4 ovarian; 27.3 µM and > 100 µM in the experiment with TK-10 renal. Also, the GI50 in the experiment with HCT-116 colon is 23.5 µM and > 100 µM; with SN12C renal, 49 µM and > 100 µM. For the same compound, the TGI is 65 µM and > 100 µM in the experiment on IGROV1 ovarian; 96.4 µM and > 100 µM in the experiment with MALME-3M melanoma; greater than 100 µM with HCC-2998 colon; greater than 100 µM in the experiment on UO-31 renal; 45.1 µM and > 100 µM in the experiment with CAKI-1 renal; greater than 100 µM with OVCAR-4 ovarian. For the same compound, the TGI in the experiment with TK-10 renal is greater than 100 µM; with HCT-116 colon it was greater than 100 µM; with A498 renal it was 67.1 µM and > 100 µM; with SN12C renal, greater than 100 µM.

Turning to `O=C1/C(=C/C(Cl)=C/c2ccccc2)SC(=S)N1CCc1ccc(O)cc1`, the GI50 was 2.02 µM in the experiment with IGROV1 ovarian; 1.44 µM in the experiment on MALME-3M melanoma; 1.91 µM with HCC-2998 colon; 1.29 µM with UO-31 renal; 1.52 µM in the experiment with CAKI-1 renal; 3.19 µM in the experiment with OVCAR-4 ovarian. Also, the GI50 in the experiment with TK-10 renal is 2.39 µM; in the experiment on HCT-116 colon, 1.01 µM; in the experiment with A498 renal, 1.86 µM; with SN12C renal, 1.51 µM. Further, the TGI stood at 4.93 µM in the experiment with IGROV1 ovarian; 3 µM in the experiment with MALME-3M melanoma; 3.72 µM with HCC-2998 colon; 2.69 µM in the experiment with UO-31 renal; 3.78 µM in the experiment with CAKI-1 renal; 35.8 µM in the experiment on OVCAR-4 ovarian. Moreover, the TGI with TK-10 renal was determined as 5.49 µM; in the experiment with HCT-116 colon it was 3.55 µM; with A498 renal, 3.51 µM; in the experiment with SN12C renal, 4.12 µM.

Regarding `COc1ccc(F)cc1C(=O)c1cnc(NC2CCN(S(C)(=O)=O)CC2)nc1N`, the GI50 was 1.84 µM in the experiment with IGROV1 ovarian; 3.57 µM with MALME-3M melanoma; 3.55 µM in the experiment on HCC-2998 colon; 3.69 µM with UO-31 renal; 2.88 µM in the experiment on CAKI-1 renal; 5.7 µM in the experiment with OVCAR-4 ovarian. The GI50 in the experiment on TK-10 renal is 1.83 µM; with HCT-116 colon, 1.21 µM; with A498 renal it was 3.22 µM; in the experiment with SN12C renal, 4.92 µM. Moreover, the TGI in the experiment on IGROV1 ovarian was greater than 13.6 µM; in the experiment on MALME-3M melanoma, greater than 16.8 µM; in the experiment on HCC-2998 colon, greater than 25 µM; in the experiment with UO-31 renal, greater than 18.6 µM; with CAKI-1 renal, greater than 17.6 µM; with OVCAR-4 ovarian, greater than 21.4 µM. For the same compound, the TGI in the experiment on TK-10 renal is 14.7 µM; with HCT-116 colon it was greater than 25 µM; with A498 renal, 8.06 µM; in the experiment on SN12C renal it was greater than 25 µM.

Take `O=C(Cn1ccnc1[N+](=O)[O-])NCC(F)(F)C(F)(F)F`: the GI50 with IGROV1 ovarian, in the experiment with MALME-3M melanoma, in the experiment on HCC-2998 colon, in the experiment with UO-31 renal, in the experiment with CAKI-1 renal and with OVCAR-4 ovarian was greater than 100 µM throughout. Moreover, the GI50 in the experiment on TK-10 renal, in the experiment on HCT-116 colon, in the experiment on A498 renal and with SN12C renal was greater than 100 µM in each case. The TGI in the experiment with IGROV1 ovarian, in the experiment with MALME-3M melanoma, in the experiment with HCC-2998 colon, with UO-31 renal, in the experiment on CAKI-1 renal and in the experiment on OVCAR-4 ovarian was greater than 100 µM throughout. In addition, the TGI in the experiment with TK-10 renal, in the experiment on HCT-116 colon, in the experiment on A498 renal and in the experiment on SN12C renal was greater than 100 µM throughout.

Regarding `Cc1c(Cl)ccc2c1NC(=O)C2(O)C1Cc2ccccc2C1=O` (stereo not drawn), the TGI in the experiment with IGROV1 ovarian, in the experiment with MALME-3M melanoma, in the experiment on HCC-2998 colon, in the experiment on UO-31 renal, in the experiment on CAKI-1 renal and in the experiment on OVCAR-4 ovarian was greater than 100 µM each time. For the same compound, the TGI with TK-10 renal, in the experiment with HCT-116 colon, in the experiment on A498 renal and in the experiment with SN12C renal was greater than 100 µM in each case.
